Reference: patent US20210128596A1, “COMPOSITIONS AND METHODS FOR TREATING SEPTIC CARDIOMYOPATHY” (UNIVERSITY OF PENNSYLVANIA, priority 2017, published 2021)
“Also recorded” adds a separate entry of the source.

Columns and labels:
[1] = tested on: ventricular tissue of septic mice; assay: Glucose and fatty-acid metabolism related gene expression in ventricular tissue; assay type: in vivo, mouse
Description: (§1) RNA purification and gene expression analysis—Total RNA was purified from AC16 cells or hearts using the TRIzol reagent according to the instructions of the manufacturer (Invitrogen). DNase-treated RNA was used for cDNA synthesis using the ProtoScript II First Strand cDNA Synthesis Kit (New England Biolabs). Quantitative real-time PCR was performed with the Sybr Select Master Mix (Applied Biosystems). Incorporation of the SYBR green dye into the PCR products was monitored with the Applied Biosystems StepOnePlus Real-Time PCR System. Samples were normalized against mouse 36B4 or human rps13 RNA.

[2] = tested on: adenylyl cyclase V/VI; assay: Adenylyl cyclase V/VI expression (western blot) in CLP mice; assay type: in vivo, mouse; settings: SDG following CLP
Description: Mice were either sham treated (n=3) or subjected to cecal ligation puncture (CLP, n=6). SDG was administered to three mice following CLP.

[3] = tested on: ventricular tissue of septic mice; assay: Antioxidant-related gene expression in ventricular tissue; assay type: in vivo, mouse; settings: ventricular tissue 12 hours after CLP
Description: as §1

[4] = tested on: cardiac tissue isolated from septic mice; assay: Autophagy markers (LC3BII/LC3BI, Map1lc3b, BNIP3) in cardiac tissue; assay type: in vivo, mouse
Description: as §1
Protein purification and analysis—Isolated heart tissue or AC16 cells were homogenized in radioimmune precipitation assay buffer containing protease and phosphatase inhibitors (Pierce Protease and Phosphatase Inhibitor Mini Tablets, Thermo Scientific). 30-50 μg of total protein extract was applied to SDS-PAGE and transferred onto nitrocellulose membranes.

[5] = tested on: C57BL/6 mice; assay: In vivo cardiac adrenergic sensitivity (hemodynamics, isoproterenol); design: species or system mouse; settings: 12 h post-CLP, LGM2605 6 h post-CLP
Description: In vivo cardiac adrenergic sensitivity measurements—Hemodynamics measurements were performed, as published^21. Mice were anesthetized with 2% Tribromoethanol (Avertin). The right carotid artery was cannulated with a 1.4 French micro-manometer (Millar Instruments, Houston, Tex.) and was advanced into LV cavity, measuring LV pressure, LV end-diastolic pressure (LVEDP) and heart rate (HR). These parameters as well as maximal values of the instantaneous first derivative of LV pressure (+dP/dtmax, as a measure of cardiac contractility) and minimum values of the instantaneous first derivative of LV pressure (−dP/dtmin, as a measure of cardiac relaxation) were recorded at baseline and after administration, through the jugular vein, of increasing doses of the β-adrenergic receptor (βAR) agonist, isoproterenol (0.1 ng, 0.5 ng, 1 ng, 5 ng, 10 ng). Data was recorded and analyzed on a PowerLab System (AD Instruments).

[6] = tested on: AC16 cells; assay: cAMP levels in AC16 cells; assay type: cell-based, human
Description: AC16 cells were either left unstimulated or stimulated with either forskolin or isoproterenol for 12 hours and then treated with SDG, Liposaccharide (LPS) or both.
Cell culture—A human ventricular cardiomyocyte-derived cell line, designated AC-16, was used for some in vitro experiments. Cells were maintained in Dulbecco's modified Eagle's medium-nutrient mixture F-12 (DMEM-F-12; Invitrogen, Carlsbad, Calif.).

[7] = tested on: adult cardiomyocytes isolated from septic mice; assay: Seahorse oxygen consumption rate in cardiomyocytes isolated from septic mice; assay type: in vivo, mouse
Description: Mice were either sham treated or subjected to cecal ligation puncture followed by SDG treatment. The oxygen consumption rate (OCR) was measured in a seahorse assay.
Adult mouse cardiomyocytes isolation—Adult mouse cardiomyocytes (ACMs) were isolated from ventricles of C57BL/6 mice 12 hours post-sham surgery, CLP surgery or combined performance of CLP and treatment with LGM2605 at 6 hours post-surgery. Hearts from heparinized mice (90 USP; ip) were cannulated through the aorta. Hearts were perfused with perfusion buffer (120.4 mMNaCl, 14.7 mM KCL, 0.6 mM NaH2PO4, 0.6 mM KH2PO4, 1.2 mM MgSO4, 10 mM Hepes, 4.6 mM NaHCO3, 30 mMtaurine, 10 mM BDM, 5.5 mM glucose; pH 7.4) for 3 min followed by digestion with perfusion buffer containing 19250 units Collagenese type II (Worthington), 5-6 mg trypsin and 0.02 mM CaCl2 for 7 min. Ventricles were gently teared into small pieces, perfusion buffer containing 5 mg/ml BSA and 0.125 mM CaCl2 was added and filtered with 100 μm nylon. The filtrate was pelleted by gravity for 5 min, centrifuged for 30 sec at 700 rpm and the pellet resuspended in perfusion buffer containing 5 mg/ml BSA and 0.225 mM CaCl2. The cells were pelleted by gravity for 10 min, centrifuged for 30 sec at 700 rpm and the pellet resuspended in perfusion buffer containing 5 mg/ml BSA and 0.525 mM CaCl2.
Seahorse analysis—Isolated primary ACMs were counted with Hematocytometer. Dead cells were detected with Trypan Blue Dye staining. Cells were platted (3000 cells per well) in XF96 Seahorse® plates pre-coated with laminin with 20 μg/ml laminin (Invitrogen, 23017). In order to assess oxygen consumption rates (OCR) for fatty acid oxidation (FAO) recordings, cells were incubated in substrate limited medium (DMEM containing 10 mM Glucose, 1.025 mM CaCl2, 0.5 mM carnitine, pH=7.4) and assayed with fatty acid oxidation medium as per manufacturer's protocol. Before starting the assay, 1 mM palmitate conjugated with BSA was added in each well. Drugs used for maximal response during fatty acid oxidation were: Oligomycin (3 μM) (Sigma, 04875) which blocks complex V, FCCP (2 μM) (Sigma, C2920) that leads to the collapse of the proton gradient, and Rotenone/Antimycin A (0.5 μM) (Sigma, A8674)/(Sigma, R8875) where rotenone blocks complex I and antimycin A blocks complex III. The pre-hydrated with XF assay calibrant, XF cartridges were filled with the drugs and the cartridge was calibrated for 30 minutes in Seahorse Analyzer. All experiments were performed at 37° C. Calculations were made as described in the Seahorse manual and XF Seahorse Mito Stress Test kit user guide. Briefly, basal respiration was calculated with subtraction of non-mitochondrial respiration rate from the last measurement prior to first injection. Maximal respiration was calculated by subtraction of the non-mitochondrial respiration measurement from maximum measurement after FCCP injection. ATP synthesis-related OCR was obtained indirectly by measuring ATP-linked respiration in the presence of complex V inhibitor (Oligomycin). The decrease of oxygen consumption rate representing the portion of basal respiration that was used to drive ATP synthesis was calculated with subtraction of the minimum measurement after Oligomycin injection from the last measurement prior to Oligomycin injection. Spare Respiratory Capacity was equal to (maximum respiration)−(basal respiration).

[8] = ventricular tissue 12 hours after CLP
[9] = CLP + LGM2605 (6 hrs post-CLP), cardiomyocytes 12 hrs after surgery

SMILES: COc1cc(C[C@@H](CO[C@@H]2O[C@H](CO)[C@@H](O)[C@H](O)[C@H]2O)[C@H](CO[C@@H]2O[C@H](CO)[C@@H](O)[C@H](O)[C@H]2O)Cc2ccc(O)c(OC)c2)ccc1O [LGM2605, secoisolariciresinol diglucoside]
- expression of fatty acid oxidation and glucose metabolism-related genes ([1]; CLP mice treated with SDG): did not restore the expression of fatty acid oxidation and glucose metabolism-related genes
- PPARα and LCAD expression [1, 8]: did not reverse the CLP-mediated changes in the PPARα and LCAD
- cardiac PDK4 mRNA levels [1, 8]: This increase was not alleviated by administration of LGM2605
- adenylyl cyclase V/VI expression (AC/GAPDH ratio) [2]: restores cyclase V/VI expression pre-CLP levels
- cardiac expression of antioxidant genes (NRF2, HO1, GSTM1, NQO1, UCP2, UCP3) [3]: not accompanied by prevention of the CLP-mediated changes in cardiac expression of antioxidant genes
- autophagy markers (LC3BII/LC3BI ratio; Map1lc3b and BNIP3 mRNA) ([4]; cardiac tissue from septic mice): Neither marker was alleviated by LGM2605
- expression of the mitochondrial damage marker BNIP3 ([4]; septic mice following LGM2605 administration): trend for reduced expression of the mitochondrial damage marker BNIP3
- responsiveness to isoproterenol [5]: less robust in both septic groups regardless of LGM2605 treatment
- basal LVdP/dtmax and LVdP/dtmin ([5]; compared to sham surgery): lower basal myocardial LVdP/dtmax (FIG. 14B) and LVdP/dtmin (FIG. 14C) with or without LGM2605 administration
- cAMP levels ([6]; SDG in the presence of LPS): this increase was abolished in the presence of LPS
- cAMP levels ([6]; in the presence of forskolin or isoproterenol): appears to be insignificant
- cAMP levels ([6]; non-stimulated, 12 hours): increased cAMP levels
- basal respiration and oxygen consumption rate associated with ATP synthesis [7, 9]: increased basal respiration levels (FIG. 18B) and oxygen consumption rate associated with ATP synthesis (FIG. 18C), compared to both CLP and sham mice
- maximal respiration and respiratory spare capacity [7, 9]: markedly elevated by LGM2605 treatment
- maximal respiration, ATP production, non-mitochondrial oxygen consumption ([7]; CLP + SDG relative to levels observed after CLP): statistically significant increase in maximal respiration, ATP production, and non-mitochondrial oxygen consumption relative to levels observed after CLP
- basal respiration, maximal respiration, ATP production, non-mitochondrial oxygen consumption ([7]; CLP + SDG relative to the untreated levels): statistically significant increase in basal respiration, maximal respiration, ATP production, and non-mitochondrial oxygen consumption relative to the untreated levels
- oxygen consumption rate (OCR) ([7]; CLP followed by SDG treatment vs CLP and sham, listed as SDG): more than compensated for that decrease; also recorded: increased oxygen consumption rate (OCR) compared to CLP alone and sham operated mice
- proton leakage ([7]; sham, CLP, CLP + SDG): no statistically significant changes in proton leakage were observed
